We go through 22 compounds from patent US6482849B1, “Inhibitors of α4β1 mediated cell adhesion” (Tanabe Seiyaku Co., Ltd., priority 1997, dated 2002).

Data set [1] concerns the target T1, α4β1 integrin (Jurkat cell adhesion to immobilized CS-1 derived peptide CLHPGEILDVPST) (Homo sapiens, UniProt P05556+P13612).
T1 construct: 100 μl of Jurkat cells (2.5×10^6 cells/ml) in DMEM plus BSA; endogenous in cells; host or cells: Jurkat T-cell line
Put plainly: Jurkat-CS-1 Assay. The data set is classed as cell-based. Conditions: Jurkat cells on CS-1 peptide coated plates. Here is the method: The CS-1 derived peptide, CLHPGEILDVPST, and the scrambled control peptide, CLHGPIELVSDPT, were synthesized on a Beckman 990 synthesizer using t-Boc methodology. The peptides were immobilized onto microtiter plates using the heterobifunctional crosslinker 3-(2-pyridyldithio)propionic acid N-hydroxysuccinimide ester (SPDP) as reported by Pierschbacher et al., Proc. Natl. Acad. USA, 80:1224-1227 (1983). Microtiter plates were coated with 20 μg/ml HSA for 2 hr. at room temperature, washed once with PBS and derivatized with 10 μg/ml SPDP for 1 hr. After washing, 100 μl of a 100 μg/ml cysteine containing peptide solution which had been recently dissolved was added to the wells and allowed to crosslink to the plates overnight at 4° C. Unbound peptide was removed from plates by washing with PBS. To block non-reacted sites, the plates are coated with 100 μl of a 2.5 mg/ml BSA solution in PBS for 1 hr. at 37° C. 100 μl of Jurkat cells (2.5×10^6 cells/ml) in DMEM plus BSA (2.5 mg/ml) was mixed with an appropriate concentration of the compound to be tested and the mixture was added to peptide coated dishes and incubated for 1 hr. at 37° C. Generally 100, 20, 5 and 1.25 μM concentrations of the compound were tested.
Following this incubation the plates were washed once with PBS and the attached cells were fixed with 3% paraformaldehyde in PBS and stained with 0.5% toluidine blue in 3.7% formaldehyde. The cells were stained overnight at room temperature and the optical density at 590 nm of toluidine blue stained cells was determined using a vertical pathway spectrophotometer to quantitate attachment (VMAX Kinetic Microplate Reader, Molecular Devices, Menlo Park, Calif.). This procedure is a modification of a previously published method (Cardarelli et al, J. Biol. Chem., 269:18668-18673 (1994) and Cardarelli et al, Proc. Natl. Acad. Sci. USA, 83:2647-2651 (1986)).

The target in data set [2] is T2, α4β1 integrin (Jurkat T-cell adhesion to IL-1 stimulated endothelial cell monolayers) (Homo sapiens, UniProt P05556+P13612).
T2 construct: a T-cell line, Jurkat, known to express the α4β1 integrin; host or cells: Jurkat T-cell line
Put plainly: Jurkat-Endothelial Cell Adhesion Assay (Jurkat EC). Conditions: Jurkat cells on IL-1 stimulated HUVEC monolayers. Format: cell-based. The protocol:
The following assay established the activity of the present compounds in inhibiting β1-mediated cell adhesion in a representative in vitro system. This assay measures the adhesive interactions of a T-cell line, Jurkat, known to express the α4β1 integrin, to endothelial monolayers in the presence of test compounds. The test compounds were added in increasing concentrations to T-cells and then the T-cell compound mixture was added to IL-1 stimulated endothelial cell monolayers. The plates were incubated, washed and the percentage of attached cells was quantitated. […] Human umbilical vein endothelial cells were purchased from Clonetics (San Diego, Calif.) at passage number 2. The cells were grown on 0.5% porcine skin gelatin pre-coated flasks (Sigma, St. Louis Mo.) in EGM-UV media (Clonetics, San Diego, Calif.) supplemented with 10% fetal bovine serum. Cells are refed every 2-3 days reaching confluence by day 4 to 6. […] The endothelial cells are not used following passage 6. Am The T-cell line Jurkat was obtained from American Type Tissue Culture Collection (Rockville, Md.) and the cells were cultured in RPMI containing 10% fetal calf serum. The cells were washed twice in Hank's Balanced Salt Solution (HBSS) and resuspended in Dulbecco's […] Eagle's Media (DMEM) containing 2.5 mg/ml Human Serum Albumin (HSA). Jurkat cells (1×10^6 cells/ml) were stained with 10 ng/ml BCECF-AM z z (Molecular Probes, Eugene, Ore.)) in HBSS without phenol red. The cells were loaded with BCECF for 60 minutes in the dark at 37° C., washed 2 times, and resusupended in DMEM-HSA solution.
Confluent endothelial monolayers, grown in 96-well tissue culture plates, were stimulated for 4 hr. at 37° C. with 0.1 ng/ml (˜50 U/ml) recombinant IL-1 (Amgen, Thousand Oaks, Calif.). Following this incubation, the monolayers were washed twice with HBSS and 0.1 ml of DMEM-HSA solution was added. Jurkat cells (5×10^5 cells) were combined with the appropriate concentration of the test compound and 0.1 ml of the Jurkat cell-compound mixture was added to the endothelial cell monolayers. Generally, 100, 20, 5 and 1.25 μM compound concentrations were tested. […] The plates were placed on ice for 5 minutes to allow for Jurkat cell settling and the plates were incubated at 37° C. for 20 minutes. Following this incubation, the monolayers were washed twice with PBS containing 1 mM calcium chloride and 1 mM magnesium chloride and the plates were read using a Millipore Cytofluor 2300 (Marlboro, Mass.). Fluorescence in each well was measured as Arbitrary Fluorescence Units and percent adhesion in the absence of compound was adjusted to 100% and the % adhesion in the presence of compound was calculated. Monolayers were also fixed in 3% paraformaldehyde and evaluated microscopically to verify the adhesion. This procedure is a modification of a previously published method (Cardarelli et al., J. Biol. Chem. 269:18668-18673 (1994)).

T2 sequence (P13612 34-1032): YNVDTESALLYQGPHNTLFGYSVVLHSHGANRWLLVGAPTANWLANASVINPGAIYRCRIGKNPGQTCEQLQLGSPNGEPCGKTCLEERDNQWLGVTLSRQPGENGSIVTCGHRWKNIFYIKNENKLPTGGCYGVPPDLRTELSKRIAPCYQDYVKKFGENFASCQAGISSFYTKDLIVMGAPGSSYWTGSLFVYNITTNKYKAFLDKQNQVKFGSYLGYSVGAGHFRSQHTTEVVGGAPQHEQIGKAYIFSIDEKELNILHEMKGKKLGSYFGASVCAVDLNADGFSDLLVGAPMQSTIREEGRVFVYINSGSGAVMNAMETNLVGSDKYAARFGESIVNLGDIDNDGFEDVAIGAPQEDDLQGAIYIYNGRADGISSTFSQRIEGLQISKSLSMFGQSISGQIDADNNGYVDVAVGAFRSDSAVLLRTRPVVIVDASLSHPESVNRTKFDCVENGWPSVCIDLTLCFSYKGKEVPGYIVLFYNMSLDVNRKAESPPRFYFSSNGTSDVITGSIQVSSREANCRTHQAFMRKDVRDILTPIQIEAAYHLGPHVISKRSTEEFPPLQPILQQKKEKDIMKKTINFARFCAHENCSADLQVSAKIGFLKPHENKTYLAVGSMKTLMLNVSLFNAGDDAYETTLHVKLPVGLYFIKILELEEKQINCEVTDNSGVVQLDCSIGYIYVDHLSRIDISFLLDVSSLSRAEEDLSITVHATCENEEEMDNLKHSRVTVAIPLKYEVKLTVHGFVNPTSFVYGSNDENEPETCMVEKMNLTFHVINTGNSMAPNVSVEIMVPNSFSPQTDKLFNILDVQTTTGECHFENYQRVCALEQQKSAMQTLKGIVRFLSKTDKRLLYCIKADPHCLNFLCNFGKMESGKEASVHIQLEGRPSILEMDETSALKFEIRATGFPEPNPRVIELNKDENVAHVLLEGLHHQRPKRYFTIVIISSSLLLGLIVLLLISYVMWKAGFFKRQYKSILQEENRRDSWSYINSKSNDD
T2 sequence (P05556 21-798): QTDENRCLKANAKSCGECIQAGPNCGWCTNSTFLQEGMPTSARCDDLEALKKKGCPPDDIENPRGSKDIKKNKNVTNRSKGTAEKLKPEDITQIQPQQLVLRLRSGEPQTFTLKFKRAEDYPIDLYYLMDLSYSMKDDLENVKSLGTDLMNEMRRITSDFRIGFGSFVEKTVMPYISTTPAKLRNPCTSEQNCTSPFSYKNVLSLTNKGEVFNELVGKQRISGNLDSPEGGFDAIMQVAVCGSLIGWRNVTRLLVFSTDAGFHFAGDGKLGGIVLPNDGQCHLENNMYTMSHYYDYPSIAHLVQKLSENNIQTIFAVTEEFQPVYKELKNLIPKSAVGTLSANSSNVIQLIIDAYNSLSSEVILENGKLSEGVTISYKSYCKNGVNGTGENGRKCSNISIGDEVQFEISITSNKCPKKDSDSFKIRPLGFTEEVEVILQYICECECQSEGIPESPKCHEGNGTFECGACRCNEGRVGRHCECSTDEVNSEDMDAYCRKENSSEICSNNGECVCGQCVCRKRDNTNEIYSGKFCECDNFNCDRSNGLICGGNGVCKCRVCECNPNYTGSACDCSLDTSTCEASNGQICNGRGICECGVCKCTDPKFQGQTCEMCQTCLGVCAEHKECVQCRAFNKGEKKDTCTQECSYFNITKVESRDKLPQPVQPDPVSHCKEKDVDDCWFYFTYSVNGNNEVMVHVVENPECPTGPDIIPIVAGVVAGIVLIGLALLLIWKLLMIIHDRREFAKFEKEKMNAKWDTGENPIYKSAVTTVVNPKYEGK
T1 sequence (P13612 34-1032): as the sequence (P13612 34-1032) above
T1 sequence (P05556 21-798): as the sequence (P05556 21-798) above

Broadly, the melting point is the temperature, or range, at which the solid turns liquid. As for `COC(=O)C(Cc1cn(Cc2ccc(Cl)c(Cl)c2)cn1)NC(=O)[C@H]1CC[C@@](C)(C(=O)O)C1(C)C` (stereo in doubt) [Example 3, (1S-cis)-N-[(3-Carboxy-2,2,3-trimethylcyclopentyl)carbonyl]-1-[(3,4-dichlorophenyl)methyl]-L-histidine methyl ester], the melting point is 174 to 175 °C (dec.).

The IC50 is the point on the concentration scale where inhibition reaches its midpoint. A high value points to a need for much substance. On to `CC1(C)[C@@H](C(=O)N[C@@H](Cc2ccc(OCc3ccccc3)cc2)C(=O)O)CC[C@@]1(C)C(=O)O` [Example 2, (1S-cis)-N-[(3-Carboxy-2,2,3-trimethylcyclopentyl)carbonyl]-O-(phenylmethyl)-L-tyrosine], for which the melting point was 146 to 149 °C. Also, the half-maximal inhibitory concentration (IC50) in data set [1] lay within 500 to 1000 nM.

For the compound `CC1(C)[C@@H](C(=O)N[C@@H](Cc2ccc(OCC3CCCCC3)cc2)C(=O)O)CC[C@@]1(C)C(=O)O` [Example 13], the melting point fell in the range of 102 to 105 °C. The same compound returned an IC50 in data set [2] of 5000 to 10000 nM. The IC50 in data set [1] was in the range of 500 to 1000 nM.

`CCCCC(CC)COc1ccc(CC(NC(=O)C2CCC(C)(C(=O)O)C2(C)C)C(=O)O)cc1` (stereo not shown) [Example 14] yielded a melting point of 94 to 97 °C. The compound further returned a half-maximal inhibitory concentration (IC50) in data set [2] of 5000 to 10000 nM.

Take `CC1(C)[C@@H](C(=O)N[C@@H](Cc2cn(Cc3ccccc3)cn2)C(=O)O)CC[C@@]1(C)C(=O)O` [Example 29]: the melting point is 258 to 259 °C (dec.). This compound had an IC50 in data set [2] of 5000 to 10000 nM. This compound registered a concentration for half-maximal inhibition (IC50) in data set [1] of 500 to 1000 nM.

`CC1(C)[C@@H](C(=O)N[C@@H](Cc2cccc(OCc3ccccc3)c2)C(=O)O)CC[C@@]1(C)C(=O)O` [Example 46] yielded a melting point of 88 to 90 °C. Also, the IC50 in data set [2] lay within 800 to 5000 nM.

Consider `CC1(C)[C@@H](C(=O)N[C@@H](Cc2ccc(O)c(NC(=O)c3c(Cl)cccc3Cl)c2)C(=O)O)CC[C@@]1(C)C(=O)O` [Example 61], for which the melting point lay in the range of 168 to 171 °C. In addition, the IC50 in data set [2] was 800 to 5000 nM. Also, the IC50 in data set [1] was 80 to 500 nM.

Turning to `CC1(C)[C@@H](C(=O)N[C@@H](Cc2ccc(NC(=O)C3CCCCC3)cc2)C(=O)O)CC[C@@]1(C)C(=O)O` [Example 75], the melting point is 151 to 154 °C. Also, the concentration for half-maximal inhibition (IC50) in data set [2] is 800 to 5000 nM.

The compound `CC1(C)[C@@H](C(=O)N[C@@H](Cc2ccc(NC(=O)c3ccccn3)cc2)C(=O)O)CC[C@@]1(C)C(=O)O` [Example 77] displayed a melting point of 102 to 104 °C. The compound also came in with an IC50 in data set [2] of 800 to 5000 nM. In data set [1], this compound returned a half-maximal inhibitory concentration (IC50) of 80 to 500 nM.

With `CC(=O)Nc1ccc(C[C@H](NC(=O)[C@H]2CC[C@@](C)(C(=O)O)C2(C)C)C(=O)O)cc1` [Example 79], the melting point was 238 to 240 °C. Besides, the IC50 in data set [2] lay in the range of 5000 to 10000 nM.

Regarding `CCCCCCCc1ccc(C(=O)Nc2ccc(C[C@H](NC(=O)[C@H]3CC[C@@](C)(C(=O)O)C3(C)C)C(=O)O)cc2)cc1` [Example 122], the melting point was 212 to 214 °C. The compound further gave an IC50 in data set [2] of 800 to 5000 nM.

The compound `CC(C)CC(=O)Nc1ccc(C[C@H](NC(=O)[C@H]2CC[C@@](C)(C(=O)O)C2(C)C)C(=O)O)cc1` [Example 134] gave a melting point of 146 to 148 °C. In addition, the concentration for half-maximal inhibition (IC50) in data set [2] was in the range of 800 to 5000 nM.

The compound `CC1(C)[C@@H](C(=O)N[C@@H](Cc2ccc(NC(=O)c3ccccc3O)cc2)C(=O)O)CC[C@@]1(C)C(=O)O` [Example 143] registered a melting point of 148 to 150 °C. Besides, in data set [1], the IC50 is 500 to 1000 nM.

Turning to `CONC(=O)[C@]1(C)CC[C@H](C(=O)N[C@@H](Cc2ccc(OCc3c(Cl)cccc3Cl)cc2)C(=O)O)C1(C)C` [Example 163], the melting point was 70 to 72 °C. This compound gave an IC50 in data set [1] of 500 to 1000 nM.

Turning to `CC(=O)N(Cc1c(Cl)cccc1Cl)c1ccc(C[C@H](NC(=O)[C@H]2CC[C@@](C)(C(=O)O)C2(C)C)C(=O)O)cc1` [Example 170], the melting point was in the range of 241 to 244 °C. In data set [2], this compound showed an IC50 of 5000 to 10000 nM.

For `CC(C)(C)OC(=O)[C@]1(C)CC[C@H](C(=O)N[C@@H](Cc2cn(Cc3ccc(Cl)c(Cl)c3)cn2)C(=O)O)C1(C)C` [Example 202, (1S-cis)-1-[(3,4-Dichlorophenyl)methyl]-N-[[3-[(1,1-dimethylethoxy)carbonyl]-2,2,3-trimethylcyclopentyl]carbonyl]-L-histidine], the melting point lay in the range of 234 to 235 °C.

For `COC(=O)[C@H](Cc1ccc(NC(=O)c2c(Cl)cccc2Cl)cc1)NC(=O)[C@H]1CC[C@@](C)(C(=O)NCC(N)=O)C1(C)C` [Example 233, (1S-cis)-N-[[3-[[(2-Amino-2-oxoethyl)amino]carbonyl]-2,2,3-trimethylcyclopentyl]carbonyl]-4-[(2,6-dichlorobenzoyl)amino]-L-phenylalanine methyl ester], the melting point fell in the range of 232 to 233 °C.

As for `CC1(C)[C@@H](C(=O)N[C@H](Cc2ccc(NC(=O)c3c(Cl)cccc3Cl)cc2)C(=O)O)CC[C@@]1(C)C(=O)O` [Example 237, (1S-cis)-N-[(3-Carboxy-2,2,3-trimethylcyclopentyl)carbonyl]-4-[(2,6-dichlorobenzoyl)amino]-D-phenylalanine], the melting point lay in the range of 263 to 267 °C.

`CC1(C)[C@H](C(=O)O)CC[C@]1(C)C(=O)N[C@@H](Cc1ccc(NC(=O)c2c(Cl)cccc2Cl)cc1)C(=O)O` [Example 244, (1S-cis)-N-[(3-Carboxy-1,2,2-trimethylcyclopentyl)carbonyl]-4-[(2,6-dichlorobenzoyl)amino]-L-phenylalanine] had a melting point of 152 to 157 °C.

Regarding `CC1(C)[C@@H](C(=O)O)CC[C@]1(C)C(=O)N[C@H](Cc1ccc(NC(=O)c2c(Cl)cccc2Cl)cc1)C(=O)O` [Example 246, (1S-trans)-N-[(3-Carboxy-1,2,2-trimethylcyclopentyl)carbonyl]-4-[(2,6-dichlorobenzoyl)amino]-D-phenylalanine], the melting point lay within 145 to 150 °C.

`CC1(C)[C@H](C(=O)O)CC[C@@]1(C)C(=O)N[C@@H](Cc1ccc(NC(=O)c2c(Cl)cccc2Cl)cc1)C(=O)O` [Example 250, (1R-trans)-N-[(3-Carboxy-1,2,2-trimethylcyclopentyl)carbonyl]-4-[(2,6-dichlorobenzoyl)amino]-L-phenylalanine] displayed a melting point of 148 to 155 °C.

Compound `CC1(C)[C@@H](C(=O)N[C@@H](Cc2ccc(NC(=O)c3c(Cl)cccc3Cl)c(Br)c2)C(=O)O)CC[C@@]1(C)C(=O)O` [Example 252, (1S-cis)-N-[(3-Carboxy-2,2,3-trimethylcyclopentyl)carbonyl]-3-bromo-4-[(2,6-dichlorobenzoyl)amino]-L-phenylalanine] yielded a melting point of 150 to 152 °C.
